Reference: patent publication US20100272717A1, “COMBINATIONS OF THERAPEUTIC AGENTS FOR TREATING CANCER” (NOVARTIS AG, priority 2007, published 2010)

Legend:
Type in all cases: in vivo
[1] = system: MCF-7 human breast adenocarcinoma xenograft; experiment: MCF-7 human breast adenocarcinoma xenograft model, anti-tumor activity and tolerability; conditions: for anti-tumor activity: FIG. 6 experiment, dose not stated
Description: A+B, the following formulae can be applied: synergy−(AB)/C<(A/C)×B/C), additive−(AB)/C=(A/C)×(B/C) and antagonistic−(AB)/C>(A/C)×(B/C). […] For example if, the triple combination of A+B+C is to be compared to the activity of the three agents given alone then taking D to be the activity of the vehicle controls the formula defining synergy would be (ABC)/D<(A/D)×(B/D)×(C/D).

[2] = system: MDA-MB-231 human breast adenocarcinoma xenograft; experiment: MDA-MB-231 human breast adenocarcinoma xenograft model, anti-tumor activity and tolerability; conditions: FIG. 1
Experimental: The effect of 5,6-dimethylxanthenone-4-acetic acid (Compound A) and 2-methyl-2-[4-(3-methyl-2-oxo-8-quinolin-3-yl-2,3-dihydro-imidazo[4,5-c]quinolin-1-yl)-phenyl]-propionitrile (Compound B) are evaluated for their anti-tumor activity using the MDA-MB-231 human breast adenocarcinoma xenograft model.
(§1) Interactions of combinations can be approximated using a combination index presented by Clark (Breast Cancer Research and Treatment 46, 255-278 (1997)). Taking A to be the activity (T/C) of compound A given alone; B to be the activity of compound B given alone; C the activity in the vehicle controls and AB to be the activity in the combination. A+B, the following formulae can be applied: synergy−(AB)/C<(A/C)×B/C), additive−(AB)/C=(A/C)×(B/C) and antagonistic−(AB)/C>(A/C)×(B/C). […] For example if, the triple combination of A+B+C is to be compared to the activity of the three agents given alone then taking D to be the activity of the vehicle controls the formula defining synergy would be (ABC)/D<(A/D)×(B/D)×(C/D).

[3] = system: A549 human non-small cell lung carcinoma xenograft; experiment: A549 human non-small cell lung carcinoma xenograft model, anti-tumor activity and tolerability
Description: as §1
The effects of Compound A and Compound B are evaluated for their anti-tumor activity using the A549 human non-small cell lung carcinoma xenograft model.
The effects of 5,6-dimethylxanthenone-4-acetic acid (Compound A) and 4-amino-5-fluoro-3-[5-(4-methylpiperazin-1-yl)-1H-benzimidazol-2-yl]quinolin-2(1H)-one (Compound C) are evaluated for their anti-tumor activity using the A549 human non-small cell lung carcinoma xenograft model.
The effects of 5,6-dimethylxanthenone-4-acetic acid (Compound A) and everolimus are evaluated for their anti-tumor activity using the A549 human non-small cell lung carcinoma xenograft model.
The effect of 5,6-dimethylxanthenone-4-acetic acid (Compound A) and patupilone are evaluated for their anti-tumor activity using the A549 human non-small cell lung carcinoma xenograft model.

[4] = system: BT-474 human breast ductal carcinoma xenograft; experiment: BT-474 human breast ductal carcinoma xenograft model, anti-tumor activity and tolerability; conditions: FIG. 7; Compound A 20 mg/kg intravenously on days 1, 5 and 9
Description: as §1

## Cc1ccc2c(=O)c3cccc(CC(=O)O)c3oc2c1C [Compound A, 5,6-dimethylxanthenone-4-acetic acid]
[1]; FIG. 6, Compound A 20 mg/kg intravenously on days 1, 5 and 9
  anti-tumor activity (tumor growth): inhibition of tumor growth
[2]; Compound A 18.6 mg/kg intravenously on days 1, 5 and 9
  anti-tumor activity (tumor growth): inhibition of tumor growth
[3]; in vivo, ip, 15 mg/kg
  anti-tumor activity (tumor growth): inhibition of tumor growth
[4]
  anti-tumor activity (tumor growth): inhibition of tumor growth

## Cn1c(=O)n(-c2ccc(C(C)(C)C#N)cc2)c2c3cc(-c4cnc5ccccc5c4)ccc3ncc21 [Compound B, 2-methyl-2-[4-(3-methyl-2-oxo-8-quinolin-3-yl-2,3-dihydro-imidazo[4,5-c]quinolin-1-yl)-phenyl]-propionitrile]
[2]; Compound B alone, several dose levels
  anti-tumor activity (tumor growth): dose-dependent inhibition of tumor growth
[3]; FIG. 2, Compound B alone, 20 mg/kg
  anti-tumor activity: shows activity

## CN1CCN(c2ccc3[nH]c(-c4c(N)c5c(F)cccc5[nH]c4=O)nc3c2)CC1 [Compound C, 4-amino-5-fluoro-3-[5-(4-methylpiperazin-1-yl)-1H-benzimidazol-2-yl]quinolin-2(1H)-one]
[3]; in vivo
  anti-tumor activity: dose-dependent activity

## CC(=O)O[C@@]12CO[C@@H]1C[C@H](O)[C@@]1(C)C(=O)[C@H](O)C3=C(C)[C@@H](OC(=O)[C@H](O)[C@@H](NC(=O)OC(C)(C)C)c4ccccc4)C[C@@](O)([C@@H](OC(=O)c4ccccc4)[C@H]21)C3(C)C [docetaxel, reference compound]
[1]
  anti-tumor activity: inhibition of tumor growth

## C/C(=C\c1csc(C)n1)[C@@H]1C[C@@H]2O[C@]2(C)CCC[C@H](C)[C@H](O)[C@@H](C)C(=O)C(C)(C)[C@@H](O)CC(=O)O1 [patupilone, (1S,3S,7S,10R,11S,12S,16R,1′E)-7,11-dihydroxy-8,8,10,12,16-pentamethyl-3-[methyl-2-(2-methylthiazol-4-yl)-vinyl]-4,17-dioxabicyclo[14.1.0]heptadecane-5,9-dione, reference compound]
[3]; FIG. 5, patupilone 2 mg/kg intravenously
  anti-tumor activity (tumor growth): inhibition of tumor growth

## bevacizumab: monoclonal antibody, marketed as AVASTIN
[1]
  anti-tumor activity: no anti-tumor activity
